Four molecules from paper PMC4858680, “A platinum-based hybrid drug design approach to circumvent acquired resistance to molecular targeted tyrosine kinase inhibitors” (Scientific Reports, 2016) can be followed below.

What all share (details): 10 μM
Assay [1] has as its target T1, AXL (Homo sapiens, UniProt P30530).
T1 sequence (P30530 26-894): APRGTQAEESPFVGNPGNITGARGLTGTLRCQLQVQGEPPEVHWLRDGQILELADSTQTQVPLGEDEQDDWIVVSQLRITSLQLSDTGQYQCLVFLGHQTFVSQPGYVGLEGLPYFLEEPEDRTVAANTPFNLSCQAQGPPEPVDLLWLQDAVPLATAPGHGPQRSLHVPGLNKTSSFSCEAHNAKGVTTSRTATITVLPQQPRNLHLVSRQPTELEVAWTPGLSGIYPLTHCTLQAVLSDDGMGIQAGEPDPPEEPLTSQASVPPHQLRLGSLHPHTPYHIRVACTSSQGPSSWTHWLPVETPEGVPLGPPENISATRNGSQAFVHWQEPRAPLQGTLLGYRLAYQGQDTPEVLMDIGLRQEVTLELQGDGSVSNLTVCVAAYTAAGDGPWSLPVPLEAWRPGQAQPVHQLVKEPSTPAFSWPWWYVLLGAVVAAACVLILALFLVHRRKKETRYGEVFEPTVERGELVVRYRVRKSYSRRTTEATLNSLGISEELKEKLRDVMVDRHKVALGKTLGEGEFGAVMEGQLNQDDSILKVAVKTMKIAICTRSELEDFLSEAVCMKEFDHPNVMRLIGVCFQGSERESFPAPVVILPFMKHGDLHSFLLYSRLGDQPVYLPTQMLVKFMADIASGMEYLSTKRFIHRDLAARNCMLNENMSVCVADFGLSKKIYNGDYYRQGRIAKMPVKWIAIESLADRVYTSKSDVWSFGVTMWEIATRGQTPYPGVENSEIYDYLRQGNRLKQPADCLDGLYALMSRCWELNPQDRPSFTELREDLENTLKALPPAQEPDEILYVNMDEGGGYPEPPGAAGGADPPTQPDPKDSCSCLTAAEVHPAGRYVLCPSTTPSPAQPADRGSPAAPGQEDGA

The target in assay [2] is FGFR3 (Homo sapiens, UniProt P22607).
For assay [3], the target named is T2, EPHA1 (Homo sapiens, UniProt P21709).
T2 sequence (P21709 26-976): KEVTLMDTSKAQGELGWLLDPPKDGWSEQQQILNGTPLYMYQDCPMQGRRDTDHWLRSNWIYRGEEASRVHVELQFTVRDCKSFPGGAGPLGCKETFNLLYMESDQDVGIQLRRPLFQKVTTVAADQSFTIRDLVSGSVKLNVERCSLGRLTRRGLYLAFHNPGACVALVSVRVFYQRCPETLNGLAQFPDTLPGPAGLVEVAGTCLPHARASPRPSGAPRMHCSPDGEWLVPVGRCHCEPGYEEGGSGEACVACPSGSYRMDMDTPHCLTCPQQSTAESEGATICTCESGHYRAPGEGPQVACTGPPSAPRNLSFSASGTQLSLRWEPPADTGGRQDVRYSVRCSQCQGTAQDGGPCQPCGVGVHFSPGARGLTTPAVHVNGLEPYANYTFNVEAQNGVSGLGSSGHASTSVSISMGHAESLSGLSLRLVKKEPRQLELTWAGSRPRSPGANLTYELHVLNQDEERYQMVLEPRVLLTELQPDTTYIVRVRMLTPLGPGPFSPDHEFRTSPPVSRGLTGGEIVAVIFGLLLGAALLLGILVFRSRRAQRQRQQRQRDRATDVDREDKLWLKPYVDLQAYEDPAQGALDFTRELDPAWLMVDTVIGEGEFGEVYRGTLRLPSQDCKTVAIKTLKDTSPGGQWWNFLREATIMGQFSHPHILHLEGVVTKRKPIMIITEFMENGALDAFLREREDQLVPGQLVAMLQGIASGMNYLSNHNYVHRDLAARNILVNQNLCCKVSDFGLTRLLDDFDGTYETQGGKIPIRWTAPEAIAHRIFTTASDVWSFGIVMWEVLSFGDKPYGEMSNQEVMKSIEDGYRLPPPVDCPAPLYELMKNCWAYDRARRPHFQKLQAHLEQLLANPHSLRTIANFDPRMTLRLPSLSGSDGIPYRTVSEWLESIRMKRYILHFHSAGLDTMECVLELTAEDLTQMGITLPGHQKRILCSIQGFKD

For assay [4], the target named is T3, EPHA6 (Homo sapiens, UniProt Q9UF33).
T3 sequence (Q9UF33 23-1036): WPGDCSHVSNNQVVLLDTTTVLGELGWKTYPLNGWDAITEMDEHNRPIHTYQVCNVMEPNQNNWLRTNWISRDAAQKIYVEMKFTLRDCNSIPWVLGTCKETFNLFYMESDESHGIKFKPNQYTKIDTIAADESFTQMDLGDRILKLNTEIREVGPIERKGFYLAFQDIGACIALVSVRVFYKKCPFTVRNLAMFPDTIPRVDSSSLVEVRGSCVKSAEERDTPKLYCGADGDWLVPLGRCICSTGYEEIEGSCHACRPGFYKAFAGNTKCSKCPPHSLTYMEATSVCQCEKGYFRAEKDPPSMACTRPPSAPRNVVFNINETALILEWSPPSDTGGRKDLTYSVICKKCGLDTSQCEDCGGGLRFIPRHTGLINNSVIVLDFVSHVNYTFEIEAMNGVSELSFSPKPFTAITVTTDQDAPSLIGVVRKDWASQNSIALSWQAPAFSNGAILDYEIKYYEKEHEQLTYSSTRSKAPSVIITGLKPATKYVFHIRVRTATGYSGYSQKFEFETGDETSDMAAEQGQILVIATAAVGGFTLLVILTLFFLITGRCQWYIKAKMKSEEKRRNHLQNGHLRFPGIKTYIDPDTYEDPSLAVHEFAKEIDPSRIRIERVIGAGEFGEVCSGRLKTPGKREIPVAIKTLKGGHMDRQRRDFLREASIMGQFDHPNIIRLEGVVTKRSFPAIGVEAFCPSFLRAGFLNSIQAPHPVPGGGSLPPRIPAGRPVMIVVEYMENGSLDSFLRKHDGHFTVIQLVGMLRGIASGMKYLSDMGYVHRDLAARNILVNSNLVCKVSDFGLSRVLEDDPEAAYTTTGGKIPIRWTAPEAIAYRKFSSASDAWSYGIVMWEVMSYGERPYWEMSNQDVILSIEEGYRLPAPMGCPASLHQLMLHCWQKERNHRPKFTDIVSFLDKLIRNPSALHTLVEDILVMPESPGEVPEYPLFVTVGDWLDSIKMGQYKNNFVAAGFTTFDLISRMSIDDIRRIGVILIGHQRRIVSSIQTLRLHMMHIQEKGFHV

Assay [5] has as its target RET (Homo sapiens, UniProt P07949).

Chain of FGFR3 (P22607 23-806): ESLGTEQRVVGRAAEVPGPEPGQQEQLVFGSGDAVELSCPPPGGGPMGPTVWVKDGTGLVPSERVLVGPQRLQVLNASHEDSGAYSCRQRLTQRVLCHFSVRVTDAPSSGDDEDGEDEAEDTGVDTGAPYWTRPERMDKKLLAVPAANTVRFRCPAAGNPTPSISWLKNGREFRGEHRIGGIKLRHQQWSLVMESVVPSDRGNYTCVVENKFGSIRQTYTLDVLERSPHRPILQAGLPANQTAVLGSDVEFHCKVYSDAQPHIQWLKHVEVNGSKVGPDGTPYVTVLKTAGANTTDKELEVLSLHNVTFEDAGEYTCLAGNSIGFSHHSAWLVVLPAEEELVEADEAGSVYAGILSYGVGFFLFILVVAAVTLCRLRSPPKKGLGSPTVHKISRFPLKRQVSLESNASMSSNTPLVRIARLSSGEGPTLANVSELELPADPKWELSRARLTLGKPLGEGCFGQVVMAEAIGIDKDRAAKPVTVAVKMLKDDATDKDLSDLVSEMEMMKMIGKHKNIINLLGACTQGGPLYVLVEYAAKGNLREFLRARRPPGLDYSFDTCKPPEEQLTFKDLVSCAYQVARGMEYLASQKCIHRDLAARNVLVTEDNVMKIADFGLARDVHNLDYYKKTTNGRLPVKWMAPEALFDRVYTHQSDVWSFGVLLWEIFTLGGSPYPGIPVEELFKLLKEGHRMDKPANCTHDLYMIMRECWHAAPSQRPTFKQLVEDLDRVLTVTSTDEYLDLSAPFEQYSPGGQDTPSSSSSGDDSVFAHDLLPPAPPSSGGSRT
Chain of RET (P07949 29-1114): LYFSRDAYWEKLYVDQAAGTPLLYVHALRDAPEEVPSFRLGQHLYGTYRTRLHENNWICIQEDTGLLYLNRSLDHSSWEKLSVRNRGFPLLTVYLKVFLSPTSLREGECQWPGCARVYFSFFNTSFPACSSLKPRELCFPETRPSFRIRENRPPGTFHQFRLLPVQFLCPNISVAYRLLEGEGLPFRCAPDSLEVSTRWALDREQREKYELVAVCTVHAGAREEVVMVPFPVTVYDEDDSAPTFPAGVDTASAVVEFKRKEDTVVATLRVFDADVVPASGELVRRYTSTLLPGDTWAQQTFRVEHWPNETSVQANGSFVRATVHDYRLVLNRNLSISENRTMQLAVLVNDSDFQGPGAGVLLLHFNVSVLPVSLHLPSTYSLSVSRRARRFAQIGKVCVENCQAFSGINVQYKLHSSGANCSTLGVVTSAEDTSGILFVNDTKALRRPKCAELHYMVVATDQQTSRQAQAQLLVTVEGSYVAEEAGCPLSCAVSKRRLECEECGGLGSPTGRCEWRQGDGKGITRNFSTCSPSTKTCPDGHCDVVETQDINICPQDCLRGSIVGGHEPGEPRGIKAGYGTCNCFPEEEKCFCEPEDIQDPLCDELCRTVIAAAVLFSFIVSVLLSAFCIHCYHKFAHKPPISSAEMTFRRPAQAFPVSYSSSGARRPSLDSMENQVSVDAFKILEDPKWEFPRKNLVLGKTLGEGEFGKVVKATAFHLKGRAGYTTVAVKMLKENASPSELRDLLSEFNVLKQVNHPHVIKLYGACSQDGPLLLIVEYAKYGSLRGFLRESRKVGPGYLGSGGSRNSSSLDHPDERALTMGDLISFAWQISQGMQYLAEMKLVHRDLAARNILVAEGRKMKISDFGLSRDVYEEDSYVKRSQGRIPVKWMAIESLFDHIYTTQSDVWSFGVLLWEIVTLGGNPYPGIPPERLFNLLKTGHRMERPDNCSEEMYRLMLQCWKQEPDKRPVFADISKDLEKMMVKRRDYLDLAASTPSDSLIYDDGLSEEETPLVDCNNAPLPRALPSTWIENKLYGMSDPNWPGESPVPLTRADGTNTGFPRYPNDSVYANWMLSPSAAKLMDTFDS

For the molecule `Cc1ccc(NC(=O)c2ccc(CN3CCN(C)CC3)cc2)cc1Nc1nccc(-c2cccnc2)[n+]1[Pt-2]1([Cl])[NH2+]C2CCCCC2[NH2+]1` (stereo not drawn) [1b, oxaliplatin-imatinib], the Percent control came out at 100% in assay [1]; 94% in assay [2]; 86% in assay [3]; 90% in assay [4]; 95% in assay [5].

`COc1cc2c(Nc3ccc(Br)cc3F)[n+]([Pt-2]3([Cl])[NH2+]C4CCCCC4[NH2+]3)cnc2cc1OCC1CCN(C)CC1` (stereo not drawn) [3b, oxaliplatin-vandetanib]: the results for the Percent control in assay [1], in assay [3] and in assay [4] were 19%, 11% and 6.3%, respectively.

In the case of `C#Cc1cccc(Nc2c3cc(OCCOC)c(OCCOC)cc3nc[n+]2[Pt@SP2-2]([NH3+])([NH3+])[Cl])c1` [2a, cisplatin-erlotinib], the Percent control in assay [1] is listed as 93%; in assay [2], 89%; in assay [3], 73%; in assay [4] it was 71%; in assay [5] it was 46%.

`Cc1ccc(NC(=O)c2ccc(CN3CCN(C)CC3)cc2)cc1Nc1nccc(-c2cccnc2)n1` [Imatinib, reference compound]: the Percent control in assay [1], in assay [2], in assay [3], in assay [4] and in assay [5] was 100% in each case.
